Laboratory results from article PMC12186844 (ACS Chemical Neuroscience, 2025).
Read-outs that look alike come from different tables or passages of the source.

Legend:
D2R = target: T1, D2R (Homo sapiens, UniProt P14416); assay: D2R internalization whole cell ELISA; type: cell-based
T1 construct: expressed in transfected cells; host or cells: CHO cells stably overexpressing GRK2, transient

SNAP-D2SR WT [1] = target: T2, SNAP-D2SR WT (Homo sapiens, UniProt P14416); assay: functional cAMP assay, BRET biosensor; type: cell-based
T2 sequence (P14416 1-414 isoform P14416-2): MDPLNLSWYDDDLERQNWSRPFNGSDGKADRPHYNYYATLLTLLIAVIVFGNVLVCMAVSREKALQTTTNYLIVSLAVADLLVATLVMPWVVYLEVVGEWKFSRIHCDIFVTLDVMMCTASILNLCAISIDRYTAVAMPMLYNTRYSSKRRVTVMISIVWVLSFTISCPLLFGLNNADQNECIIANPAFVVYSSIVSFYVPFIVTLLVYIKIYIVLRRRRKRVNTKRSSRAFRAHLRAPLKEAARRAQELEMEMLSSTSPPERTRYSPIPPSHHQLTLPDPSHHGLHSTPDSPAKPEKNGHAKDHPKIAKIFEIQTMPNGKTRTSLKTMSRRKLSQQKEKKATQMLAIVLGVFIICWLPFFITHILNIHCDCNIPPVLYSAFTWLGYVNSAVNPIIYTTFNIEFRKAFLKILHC
Protocol: (§1) Flp-In-CHO cells stably coexpressing the CAMYEL biosensor and DRs were plated into white 96-well CulturPlates (Revvity) and grown overnight. The cells were equilibrated in Hank’s balanced salt solution (HBSS) at 37 °C (or 25 °C when indicated) before starting the experiment. The cells were costimulated with the agonists and 10 μM forskolin for the indicated time frames when the BRET readings were captured. Coelenterazine (Nanolight Technology, AZ) was added at a final concentration of 5 μM at least 3 min prior to measurement. […] Net BRET was determined by subtraction of the vehicle control coadded with 10 μM forskolin.
(§2) Dose–response curves were fitted using the following three-parameter equation: response=bottom+top−bottom/1+10^(logEC50−log[A]) 5 where top and bottom represent the maximal and minimal asymptote of the dose response curve, [A] is the molar concentration of the agonist, and EC50 is the molar concentration of the agonist required to give a response half-way between bottom and top.

SNAP-D2SR F353^6.44A [2] = target: T3, SNAP-D2SR F353^6.44A (Homo sapiens, UniProt P14416, F382A); assay: functional cAMP assay, BRET biosensor; type: cell-based
T3 sequence (P14416 1-414 isoform P14416-2 F353A): as the sequence (P14416 1-414 isoform P14416-2) above, with F353A counted along it
Protocol: as §1, §2

SNAP-D2SR E95^2.65A = SNAP-D2SR E95^2.65A (Homo sapiens, UniProt P14416, E95A); assay: functional cAMP assay, BRET biosensor; type: cell-based
Sequence of SNAP-D2SR E95^2.65A (P14416 1-414 isoform P14416-2 E95A): as the sequence (P14416 1-414 isoform P14416-2) above, with E95A counted along it
Protocol: (§3) Flp-In-CHO cells stably coexpressing the CAMYEL biosensor and DRs were plated into white 96-well CulturPlates (Revvity) and grown overnight. The cells were equilibrated in Hank’s balanced salt solution (HBSS) at 37 °C (or 25 °C when indicated) before starting the experiment. The cells were costimulated with the agonists and 10 μM forskolin for the indicated time frames when the BRET readings were captured. Coelenterazine (Nanolight Technology, AZ) was added at a final concentration of 5 μM at least 3 min prior to measurement. […] Net BRET was determined by subtraction of the vehicle control coadded with 10 μM forskolin. For phenoxybenzamine alkylation experiments, the cells were treated with 0.1, 0.3, or 1 μM phenoxybenzamine (Sigma-Aldrich) diluted in HBSS and equilibrated at 37 °C for 30 min prior to the commencement of the assay.
as §2

SNAP-D2SR W100^ECL1A = SNAP-D2SR W100^ECL1A (Homo sapiens, UniProt P14416, W100A); assay: functional cAMP assay, BRET biosensor; type: cell-based
Sequence of SNAP-D2SR W100^ECL1A (P14416 1-414 isoform P14416-2 W100A): as the sequence (P14416 1-414 isoform P14416-2) above, with W100A counted along it
Protocol: as §3, §2

[3] = test system: 6-OHDA contralateral turning model; conditions: with subeffective dose of L-DOPA; earlier report, reference number not given; cited from earlier work
SNAP-D2SR F50^1.48A [4] = target: T4, SNAP-D2SR F50^1.48A (Homo sapiens, UniProt P14416, F50A); assay: functional cAMP assay, BRET biosensor; type: cell-based; parameters: expressed in transfected cells
T4 sequence (P14416 1-414 isoform P14416-2 F50A): as the sequence (P14416 1-414 isoform P14416-2) above, with F50A counted along it
Protocol: as §1, §2

SNAP-D2SR I73^2.43A = SNAP-D2SR I73^2.43A (Homo sapiens, UniProt P14416, I73A); assay: functional cAMP assay, BRET biosensor; type: cell-based; parameters: expressed in transfected cells
Sequence of SNAP-D2SR I73^2.43A (P14416 1-414 isoform P14416-2 I73A): as the sequence (P14416 1-414 isoform P14416-2) above, with I73A counted along it
Protocol: as §1, §2

SNAP-D2SR WT [5] = target: T2, SNAP-D2SR WT; assay: cell membrane [3H]spiperone assay
Protocol: (§4) Flp-In-CHO cells stably expressing the wild-type or mutant DRs were grown to 90% confluence in 175 cm^2 cell culture flasks. The cells were harvested in PBS containing 2 mM EDTA and centrifuged at 300g for 3 min. The resulting pellet was resuspended in ice-cold assay buffer (20 mM HEPES, 100 mM NaCl, 6 mM MgCl2, 1 mM EGTA, and 1 mM EDTA, pH 7.4), and the centrifugation step was repeated. The intact cell pellet was then resuspended in assay buffer and homogenized using a Polytron homogenizer. After centrifugation (1000g, 10 min), the pellet was discarded, and the supernatant was recentrifuged at 30,000g for 1 h at 4 °C using a Sorvall Evolution RC ultracentrifuge (Thermo Scientific). The resulting pellet was resuspended in assay buffer and stored in 250 μL aliquots at −80 °C. Membrane protein concentration was determined using a Pierce’s BCA protein assay kit (Thermo Fisher, Melbourne).
(§5) [^3H]­Spiperone binding experiments using cell membranes were conducted in a 200 μL reaction volume in assay buffer (20 mM HEPES, 100 mM NaCl, 6 mM MgCl2, 1 mM EGTA, and 1 mM EDTA, pH 7.4) containing 100 μM GppNHp and 0.1% ascorbic acid in 96-well plates. […] In all cases, nonspecific binding was determined in the presence of 10 μM haloperidol. To obtain affinity estimates of unlabeled agonists, competition binding experiments were performed at equilibrium. […] After this incubation period, bound and free radioligands were separated by fast-flow filtration through UniFilter-96 GF/B plates using a MicroBeta FilterMate harvester (Revvity) followed by three washes with ice-cold 0.9% NaCl. Filter bound radioactivity was detected as a chemiluminescence after the addition of MicroScint-20 (Revvity) in a MicroBeta plate counter (Revvity).
(§6) IC50 values obtained from the inhibition curves were converted to Ki values using the Cheng and Prusoff equation.

SNAP-D2SR F50^1.48A [6] = target: T4, SNAP-D2SR F50^1.48A; assay: cell membrane [3H]spiperone assay
Protocol: as §4, §5, §6

SNAP-D2SR F408^8.54A = SNAP-D2SR F408^8.54A (Homo sapiens, UniProt P14416, F437A); assay: cell membrane [3H]spiperone assay
Sequence of SNAP-D2SR F408^8.54A (P14416 1-414 isoform P14416-2 F408A): as the sequence (P14416 1-414 isoform P14416-2) above, with F408A counted along it
Protocol: as §4
(§7) [^3H]­Spiperone binding experiments using cell membranes were conducted in a 200 μL reaction volume in assay buffer (20 mM HEPES, 100 mM NaCl, 6 mM MgCl2, 1 mM EGTA, and 1 mM EDTA, pH 7.4) containing 100 μM GppNHp and 0.1% ascorbic acid in 96-well plates. […] In all cases, nonspecific binding was determined in the presence of 10 μM haloperidol. […] Filter bound radioactivity was detected as a chemiluminescence after the addition of MicroScint-20 (Revvity) in a MicroBeta plate counter (Revvity). […]

SNAP-D2SR F353^6.44A [7] = target: T3, SNAP-D2SR F353^6.44A; assay: cell membrane [3H]spiperone assay
Protocol: as §4, §7

SNAP-D2SR N393^7.49A = SNAP-D2SR N393^7.49A (Homo sapiens, UniProt P14416, N422A); assay: cell membrane [3H]spiperone assay
Sequence of SNAP-D2SR N393^7.49A (P14416 1-414 isoform P14416-2 N393A): as the sequence (P14416 1-414 isoform P14416-2) above, with N393A counted along it
Protocol: as §4, §7

D2LR = D2LR (Homo sapiens, UniProt P14416); assay: whole cell [3H]raclopride binding assay
Sequence of D2LR (P14416 whole entry): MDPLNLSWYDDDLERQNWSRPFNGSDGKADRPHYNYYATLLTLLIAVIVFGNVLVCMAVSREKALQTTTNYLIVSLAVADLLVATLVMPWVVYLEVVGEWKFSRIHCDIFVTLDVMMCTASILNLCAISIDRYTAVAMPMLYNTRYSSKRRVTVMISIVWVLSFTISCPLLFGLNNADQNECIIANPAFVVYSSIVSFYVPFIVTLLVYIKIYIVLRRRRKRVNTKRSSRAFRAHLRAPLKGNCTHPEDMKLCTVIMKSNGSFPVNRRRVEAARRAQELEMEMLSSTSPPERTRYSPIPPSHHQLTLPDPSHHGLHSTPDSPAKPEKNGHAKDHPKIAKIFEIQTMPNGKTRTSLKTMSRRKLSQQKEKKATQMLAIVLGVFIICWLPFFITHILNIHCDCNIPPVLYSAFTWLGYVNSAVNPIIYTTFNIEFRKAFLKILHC
Protocol: The binding reaction was conducted in HBSS for 1 h at 37 °C. The adherent cells were washed two times with cold 0.9% NaCl solution, and 100 μL/well scintilation liquid was added to the plate. The remaining radioactivity was detected in a MicroBeta counter.

[8] = read-out: D2 PAM2 KB (converted)
[9] = [3H]spiperone competition binding interaction experiment
[10] = cooperativity with [3H]raclopride
[11] = cooperativity with aripiprazole
[12] = cooperativity with bromocriptine
[13] = orthosteric ligand [3H]raclopride
[14] = orthosteric ligand aripiprazole
[15] = orthosteric ligand bromocriptine
[16] = titration of D2 PAM2 vs [3H]raclopride
[17] = titration, cooperativity with [3H]raclopride

T1 sequence (P14416 whole entry): as above

Compound: COc1cc(CO)c(F)cc1C(=O)n1ccc2c(F)cccc21 [D2 PAM2, [5-fluoro-4-(hydroxymethyl)-2-methoxyphenyl]-(4-fluoro-1H-indol-1-yl)methanone]
- pKB (D2R): 5.30 ± 0.29
- LogτB (D2R; intrinsic efficacy): -2.20 ± 0.23
- Logαβ (D2R; with dopamine): 0.99 ± 0.21
- D2 PAM2 log τ (SNAP-D2SR WT [1]): 0.06 ± 0.05
- D2 PAM2 pKB (SNAP-D2SR WT [1]): 5.02 ± 0.14
- D2 PAM2 τ (SNAP-D2SR WT [1]): 1
- Logτ (SNAP-D2SR WT [1]; S13): 0.14 ± 0.10
- pKB (SNAP-D2SR WT [1]; S13): 4.93 ± 0.22
- τ (SNAP-D2SR WT [1]; S13): 1.38
- Kb (SNAP-D2SR WT [1]; S13, read-out: KB): 11.7 µM
- Logαβ (SNAP-D2SR WT [1]; S13, with DA): 1.60 ± 0.25
- αβ (SNAP-D2SR WT [1]; S13, with DA): 39.8
- Kb (SNAP-D2SR WT [1]; Table 2, read-out: D2 PAM2 KB (converted)): 9.5 µM
- D2 PAM2 log αβ (SNAP-D2SR WT [1]; with DA): 1.25 ± 0.14
- D2 PAM2 αβ (SNAP-D2SR WT [1]; with DA): 18
- D2 PAM2 log τ (SNAP-D2SR F353^6.44A [2]): –1.06 ± 0.21
- D2 PAM2 pKB (SNAP-D2SR F353^6.44A [2]): 5.13 ± 0.16
- D2 PAM2 τ (SNAP-D2SR F353^6.44A [2]): 0.09
- Kb (SNAP-D2SR F353^6.44A [2]; [8]): 7.4 µM
- D2 PAM2 log αβ (SNAP-D2SR F353^6.44A [2]; with DA): 1.06 ± 0.21
- D2 PAM2 αβ (SNAP-D2SR F353^6.44A [2]; with DA): 11
- Kb (SNAP-D2SR E95^2.65A): 3.2 µM
- Logτ (SNAP-D2SR E95^2.65A): -0.46 ± 0.07
- pKB (SNAP-D2SR E95^2.65A): 5.49 ± 0.12
- τ (SNAP-D2SR E95^2.65A): 0.35
- Logαβ (SNAP-D2SR E95^2.65A; with DA): 1.07 ± 0.10
- αβ (SNAP-D2SR E95^2.65A; with DA): 11.7
- Kb (SNAP-D2SR W100^ECL1A): 11.7 µM
- Logτ (SNAP-D2SR W100^ECL1A): -0.43 ± 0.06
- pKB (SNAP-D2SR W100^ECL1A): 4.93 ± 0.28
- τ (SNAP-D2SR W100^ECL1A): 0.37
- Logαβ (SNAP-D2SR W100^ECL1A; with DA): 1.54 ± 0.10
- αβ (SNAP-D2SR W100^ECL1A; with DA): 34.7
- effect on L-DOPA in a rodent model of Parkinson's disease [3]: potentiate a subeffective dose of L-DOPA
- D2 PAM2 log τ (SNAP-D2SR F50^1.48A [4]): –1.35 ± 0.22
- D2 PAM2 pKB (SNAP-D2SR F50^1.48A [4]): 5.32 ± 0.28
- D2 PAM2 τ (SNAP-D2SR F50^1.48A [4]): 0.04
- fold decrease in cooperativity with DA (SNAP-D2SR F50^1.48A [4]; cAMP): 7 fold
- Kb (SNAP-D2SR F50^1.48A [4]; [8]): 5 µM
- D2 PAM2 log αβ (SNAP-D2SR F50^1.48A [4]; with DA): 0.39 ± 0.07
- D2 PAM2 αβ (SNAP-D2SR F50^1.48A [4]; with DA): 2.5
- D2 PAM2 log τ (SNAP-D2SR I73^2.43A): –1.11 ± 0.16
- D2 PAM2 pKB (SNAP-D2SR I73^2.43A): 5.24 ± 0.16
- D2 PAM2 τ (SNAP-D2SR I73^2.43A): 0.08
- fold decrease in cooperativity with DA (SNAP-D2SR I73^2.43A; cAMP): 2.8 fold
- Kb (SNAP-D2SR I73^2.43A; [8]): 6 µM
- D2 PAM2 log αβ (SNAP-D2SR I73^2.43A; with DA): 0.79 ± 0.07
- D2 PAM2 αβ (SNAP-D2SR I73^2.43A; with DA): 6.1
- pKB (SNAP-D2SR WT [5]; [9]): 5.04 ± 0.17
- Kb (SNAP-D2SR WT [5]; binding interaction experiment): 9 µM
- log α (SNAP-D2SR WT [5]; cooperativity with DA, binding): 1.05 ± 0.10
- α (SNAP-D2SR WT [5]; cooperativity with DA, binding): 11
- fold shift + 10 μM PAM (SNAP-D2SR WT [5]; shift of DA IC50): 9 fold
- ΔpIC50 + 10 μM PAM (SNAP-D2SR WT [5]; shift of DA pIC50): 0.97 ± 0.20
- pKB (SNAP-D2SR F50^1.48A [6]; [9]): 5.57 ± 0.25
- fold decrease in cooperativity with DA vs WT (SNAP-D2SR F50^1.48A [6]; binding): 5 fold
- Kb (SNAP-D2SR F50^1.48A [6]; binding interaction experiment): 3 µM
- log α (SNAP-D2SR F50^1.48A [6]; cooperativity with DA, binding): 0.33 ± 0.03
- α (SNAP-D2SR F50^1.48A [6]; cooperativity with DA, binding): 2.1
- fold shift + 10 μM PAM (SNAP-D2SR F50^1.48A [6]; shift of DA IC50): 1.7 fold
- ΔpIC50 + 10 μM PAM (SNAP-D2SR F50^1.48A [6]; shift of DA pIC50): 0.22 ± 0.12
- fold shift + 10 μM PAM (SNAP-D2SR F408^8.54A; shift of DA IC50): 0.85 fold
- ΔpIC50 + 10 μM PAM (SNAP-D2SR F408^8.54A; shift of DA pIC50): –0.07 ± 0.14
- fold shift + 10 μM PAM (SNAP-D2SR F353^6.44A [7]; shift of DA IC50): 1.3 fold
- ΔpIC50 + 10 μM PAM (SNAP-D2SR F353^6.44A [7]; shift of DA pIC50): 0.10 ± 0.12
- fold shift + 10 μM PAM (SNAP-D2SR N393^7.49A; shift of DA IC50): 0.8 fold
- ΔpIC50 + 10 μM PAM (SNAP-D2SR N393^7.49A; shift of DA pIC50): –0.08 ± 0.10
- fold inhibition of [3H]raclopride affinity (D2LR): 2.43 fold
- Logα (D2LR; cooperativity with S-(3)-PPP): 0.40 ± 0.11
- α (D2LR; cooperativity with S-(3)-PPP): 2.5
- Logα (D2LR; [10]): -0.39 ± 0.12
- α (D2LR; [10]): −0.39
- α (D2LR; cooperativity with [3H]raclopride, listed as D2 PAM): 0.41
- Logα (D2LR; cooperativity with apomorphine): 1.05 ± 0.11
- α (D2LR; cooperativity with apomorphine): 11
- Logα (D2LR; [11]): 0.43 ± 0.10
- α (D2LR; [11]): 2.7
- Logα (D2LR; [12]): 0.27 ± 0.07
- α (D2LR; [12]): 1.9
- Logα (D2LR; cooperativity with dopamine): 1.33 ± 0.10
- α (D2LR; cooperativity with dopamine): 22
- α (D2LR; cooperativity with dopamine, listed as D2 PAM): 21
- Logα (D2LR; cooperativity with lisuride): 0.55 ± 0.04
- α (D2LR; cooperativity with lisuride): 3.5
- Logα (D2LR; cooperativity with pergolide): 1.24 ± 0.14
- α (D2LR; cooperativity with pergolide): 17
- Logα (D2LR; cooperativity with pramipexole): 1.21 ± 0.11
- α (D2LR; cooperativity with pramipexole): 16
- Logα (D2LR; cooperativity with ropirinole): 1.14 ± 0.11
- α (D2LR; cooperativity with ropirinole): 14
- Logα (D2LR; cooperativity with rotigotine): 1.37 ± 0.09
- α (D2LR; cooperativity with rotigotine): 23
- Kb (D2LR; orthosteric ligand S-(3)-PPP): 5.12 µM
- pKB (D2LR; orthosteric ligand S-(3)-PPP): 5.29 ± 0.05
- Kb (D2LR; [13]): 5.5 µM
- pKB (D2LR; [13]): 5.26 ± 0.10
- Kb (D2LR; orthosteric ligand apomorphine): 6.31 µM
- pKB (D2LR; orthosteric ligand apomorphine): 5.20 ± 0.10
- Kb (D2LR; [14]): 7.24 µM
- pKB (D2LR; [14]): 5.14 ± 0.04
- Kb (D2LR; [15]): 8.12 µM
- pKB (D2LR; [15]): 5.09 ± 0.13
- Kb (D2LR; orthosteric ligand dopamine): 5.5 µM
- pKB (D2LR; orthosteric ligand dopamine): 5.26 ± 0.10
- Kb (D2LR; orthosteric ligand lisuride): 5.62 µM
- pKB (D2LR; orthosteric ligand lisuride): 5.25 ± 0.07
- Kb (D2LR; orthosteric ligand pergolide): 8.32 µM
- pKB (D2LR; orthosteric ligand pergolide): 5.08 ± 0.10
- Kb (D2LR; orthosteric ligand pramipexole): 6.92 µM
- pKB (D2LR; orthosteric ligand pramipexole): 5.16 ± 0.11
- Kb (D2LR; orthosteric ligand ropirinole): 8.71 µM
- pKB (D2LR; orthosteric ligand ropirinole): 5.06 ± 0.06
- Kb (D2LR; orthosteric ligand rotigotine): 4.68 µM
- pKB (D2LR; orthosteric ligand rotigotine): 5.33 ± 0.14
- Kb (D2LR; read-out: Kb, affinity for the unoccupied receptor, DA competition, allosteric ternary complex model): 5.5 µM
- Kb (D2LR; [16]): 5.5 µM
- pKb (D2LR; [16]): 5.26
- Logα (D2LR; [17]): -0.37
- α (D2LR; [17]): 0.43
